Read-outs that look alike come from different tables or passages of the source.
Tests used:
[1] = Single-dose IV and PO pharmacokinetics in mice; type: in vivo, male C57BL/6 mice; conditions: for AUC: analyte = dosed compound; for Cmax: read-out: Cmax, Geo Mean; for Tmax: read-out: Tmax, Geo Mean
Procedure: The in-life study and quantitative analysis of plasma samples using LC/MS were performed at Charles River Laboratories, Inc. (Wilmington, MA, USA).

[2] = Thermodynamic solubility in fasted-state simulated intestinal fluid (FaSSIF); type: physicochemical; conditions: pH 6.5, LLOQ < 1.56 µM
Procedure: The thermodynamic solubility analysis in biological media and the quantitative analysis of samples were performed according to the standard protocol at WuXi AppTec (Shanghai, China).

[3] = Pharmacokinetic modeling of valine pro-drug conversion to parent; type: in vivo, mice
Excerpt: A total of 36 mice with available PK data were included for non-linear mixed-effects analysis using NONMEM (version 7.5.0, ICON Development Solutions, Ellicott City, MD, USA), implementing the first-order conditional estimation with interaction (FOCE-I). R (version 4.2.0, R Foundation for Statistical Computing, Vienna, AUT, http://www.r-project.org) was used for visual diagnostics. […] The analyte (valine conjugate and parent compound) plasma concentration–time data were confirmed to have a biphasic distribution and elimination and were therefore fit separately to a linear two-compartment model with a depot for oral administration. Each model was parametrized in terms of clearance (CL), the volume of distribution of the central compartment (V1), intercompartmental clearance (Q), and the volume of the peripheral compartment (V3). Interindividual variability (IIV) for each parameter was assumed to be log-normally distributed, and residual variability (RUV) was described with a proportional error model. The PK parameter estimates from these independent models (parent compound or valine conjugate) were used as initial estimates for a combined model describing the conversion and disposition of the valine conjugate to the parent drug and associated metabolites. The model estimated the fraction of pro-drug converted to parent drug (Fm), which was used to calculate the first-order rate constant of metabolite formation (Kmet) = Fm × Kel. This rate constant was used to calculate the half-life of the conversion process and the amount of metabolite formed at complete conversion. The rate of metabolite formation was then calculated as the ratio of the amount of metabolite formed to the time required for complete conversion (~5 half-lives), as detailed in Figures S8–S11.

[4] = PO, 40 mg/kg (valine conjugates 40 mg/kg EQV)

For `CC(C)[C@H](N)C(=O)Oc1ccc(Cl)cc1C(=O)Nc1ccc(C(F)(F)F)cc1` [valine–compound #11], the “HL_Lambda_z, Geo Mean” value ([1]; IV, 2 mg/kg (valine conjugates 2 mg/kg EQV)) was 1.94 h, the “IV: Clobs, Geo Mean” value ([1]; IV, 2 mg/kg (valine conjugates 2 mg/kg EQV), non-compartmental analysis) was 0.004 L/h and the “HL_Lambda_z, Geo Mean” value [1, 4] was 5.77 h. For the same compound, the “PO: Cl_Fobs, Geo Mean” value [1, 4] was 0.59 L/h, the AUC ([1]; male, C57BL/6, mouse, plasma, iv, 2 mg/kg, IV, 2 mg/kg (valine conjugates 2 mg/kg EQV), non-compartmental analysis, read-out: AUCall, Geo Mean) was 36.1 µM·h and the Cmax ([1]; male, C57BL/6, mouse, plasma, iv, 2 mg/kg, IV, 2 mg/kg (valine conjugates 2 mg/kg EQV)) was 20.2 µM. The AUC ([1]; male, C57BL/6, mouse, plasma, po, 40 mg/kg, PO, 40 mg/kg (valine conjugates 40 mg/kg EQV), non-compartmental analysis, read-out: AUCall, Geo Mean) was 4.17 µM·h, the Cmax ([1]; male, C57BL/6, mouse, plasma, po, 40 mg/kg, PO, 40 mg/kg (valine conjugates 40 mg/kg EQV)) was 0.99 µM and the AUC ([1]; male, C57BL/6, mouse, plasma, po, 40 mg/kg, single PO dose, 40 mg/kg or molar equivalent, read-out: AUCall following an oral dose) was 4.17 µM·h. It also gave a Tmax ([1]; male, C57BL/6, mouse, plasma, IV, 2 mg/kg (valine conjugates 2 mg/kg EQV)) of 23.4 min, a Tmax ([1]; male, C57BL/6, mouse, plasma, PO, 40 mg/kg (valine conjugates 40 mg/kg EQV)) of 60 min and a clearance ([1]; male, C57BL/6, mouse, plasma, single IV dose, 2 mg/kg or molar equivalent, read-out: Systemic clearance following an IV dose (converted)) of 0.0667 mL/min. The solubility thermodynamic [2] was < 1.56 µM, the k el ([3]; C57BL/6, mouse, plasma, model estimate, read-out: Kel, elimination rate constant of valine conjugate (converted)) was 0.00853 s⁻¹ and the “Kmet, rate constant of conversion to parent compound” value ([3]; Kmet = Fm × Kel) was 11.9 h⁻¹. For the same compound, the “Fraction of pro-drug converted to parent (Fm)” value ([3]; two-compartment model estimate) was 39%.
